{
  "source": "patent US4939092A",
  "about": "“Proteinaceous derivatives containing iron in highly bioavailable form, preparation thereof and pharmaceutical compositions containing them” (Unibois S.p.A., priority 1987, dated 1990)",
  "key": {"[1]": {"assay": "Antianemic activity (iron-deficient diet)", "assay_type": "in vivo, rats", "conditions": "iron-deficient diet + substance"}, "[2]": {"conditions": "rat, in vivo, po, 100 mg/kg"}, "[3]": {"conditions": "background; cited from earlier work"}, "[4]": {"conditions": "oral, background; cited from earlier work"}, "[5]": {"assay": "Solubility / precipitation", "assay_type": "physicochemical"}, "[6]": {"assay": "Acute toxicity after oral administration in the male rat", "assay_type": "in vivo", "conditions": "for N° DEAD ANIMALS: 10 animals", "text": "ACUTE TOXICITY OF UB 1004 AFTER ORAL\nADMINISTRATION IN THE MALE RAT"}, "[7]": {"assay": "Gastric tolerability: values of the lesions found on the gastric mucosa", "conditions": "for value of the lesions on the gastric mucosa / value of the lesions on the gastric mucosa, Media (mean): oral t.i.d., 100 mg/kg iron; for value of the lesions on the gastric mucosa, Media (mean): mean of 7 animals"}, "[8]": {"conditions": "oral, 25 mg/Kg Fe = 367.5 mg/Kg"}, "[9]": {"conditions": "oral, 100 mg/Kg Fe = 1470 mg/Kg"}, "[10]": {"conditions": "oral, 200 mg/Kg Fe = 2940 mg/Kg"}, "[11]": {"conditions": "oral, 400 mg/Kg Fe = 5880 mg/Kg"}},
  "note": "Where two headings read alike, the source gives them in different places.",
  "data": [
    {"molecule": "Ferritin", "values": [
      {"measurement": "HEMOGLOBIN", "setting": "[1]; 7 (time unit not given)", "result": "13.88 ± 0.93", "unit": "g/100 ml"},
      {"measurement": "SYDEREMIA", "setting": "[1]; 7 (time unit not given)", "result": "196.3 ± 88.9", "unit": "μg/100 ml"},
      {"measurement": "ERYTHROCYTES", "setting": "[1]; 14 (time unit not given)", "result": "6.99 ± 0.58 10^6 /mm^3"},
      {"measurement": "HEMOGLOBIN", "setting": "[1]; 14 (time unit not given)", "result": "15.46 ± 0.93", "unit": "g/100 ml"},
      {"measurement": "SYDEREMIA", "setting": "[1]; 14 (time unit not given)", "result": "217.1 ± 52.7", "unit": "μg/100 ml"},
      {"measurement": "ERYTHROCYTES", "setting": "[1]; 21 (time unit not given)", "result": "6.99 ± 0.13 10^6 /mm^3"},
      {"measurement": "HEMOGLOBIN", "setting": "[1]; 21 (time unit not given)", "result": "14.43 ± 1.12", "unit": "g/100 ml"},
      {"measurement": "SYDEREMIA", "setting": "[1]; 21 (time unit not given)", "result": "227.6 ± 25.7", "unit": "μg/100 ml"},
      {"measurement": "value of the lesions on the gastric mucosa, Media (mean)", "setting": "[2]", "result": 0.28},
      {"measurement": "water solubility", "setting": "[3]", "result": "hydrosoluble"},
      {"measurement": "gastrointestinal side-effects", "setting": "[4]", "result": "does not have gastrointestinal side-effects"}
    ]},
    {"molecule": "lysozyme glutarate: lysozyme acylated with glutaric anhydride, Example 1(a)", "values": [
      {"measurement": "Solubility at pH 3", "setting": "[5]; pH 3", "result": "nil"},
      {"measurement": "Solubility at pH 8", "setting": "[5]", "result": "Complete"}
    ]},
    {"molecule": "UB 1004: iron (ferric) complex of lysozyme glutarate, obtained in Example 1(b) with ferric glycerophosphate", "values": [
      {"measurement": "ERYTHROCYTES", "setting": "[1]; 7 (time unit not given)", "result": "7.20 ± 0.58 10^6 /mm^3"},
      {"measurement": "HEMOGLOBIN", "setting": "[1]; 7 (time unit not given)", "result": "14.43 ± 1.13", "unit": "g/100 ml"},
      {"measurement": "SYDEREMIA", "setting": "[1]; 7 (time unit not given)", "result": "178.6 ± 57.1", "unit": "μg/100 ml"},
      {"measurement": "ERYTHROCYTES", "setting": "[1]; 14 (time unit not given)", "result": "7.20 ± 0.48 10^6 /mm^3"},
      {"measurement": "HEMOGLOBIN", "setting": "[1]; 14 (time unit not given)", "result": "15.70 ± 1.00", "unit": "g/100 ml"},
      {"measurement": "SYDEREMIA", "setting": "[1]; 14 (time unit not given)", "result": "177.5 ± 42.8", "unit": "μg/100 ml"},
      {"measurement": "ERYTHROCYTES", "setting": "[1]; 21 (time unit not given)", "result": "7.13 ± 0.26 10^6 /mm^3"},
      {"measurement": "HEMOGLOBIN", "setting": "[1]; 21 (time unit not given)", "result": "15.58 ± 0.97", "unit": "g/100 ml"},
      {"measurement": "SYDEREMIA", "setting": "[1]; 21 (time unit not given)", "result": "184.3 ± 31.8", "unit": "μg/100 ml"},
      {"measurement": "% DEATH-RATE", "setting": "[6]; [8]", "result": 0.00, "unit": "%"},
      {"measurement": "N° DEAD ANIMALS", "setting": "[6]; [8]", "result": 0},
      {"measurement": "% DEATH-RATE", "setting": "[6]; oral, 50 mg/Kg Fe = 735 mg/Kg", "result": 0.00, "unit": "%"},
      {"measurement": "N° DEAD ANIMALS", "setting": "[6]; oral, 50 mg/Kg Fe = 735 mg/Kg", "result": 0},
      {"measurement": "% DEATH-RATE", "setting": "[6]; [9]", "result": 0.00, "unit": "%"},
      {"measurement": "N° DEAD ANIMALS", "setting": "[6]; [9]", "result": 0},
      {"measurement": "% DEATH-RATE", "setting": "[6]; [10]", "result": 0.00, "unit": "%"},
      {"measurement": "N° DEAD ANIMALS", "setting": "[6]; [10]", "result": 0},
      {"measurement": "% DEATH-RATE", "setting": "[6]; [11]", "result": 0.00, "unit": "%"},
      {"measurement": "N° DEAD ANIMALS", "setting": "[6]; [11]", "result": 0},
      {"measurement": "DL50", "setting": "[6]; oral, male rat, up to 400 mg/Kg Fe", "result": "NOT DETERMINABLE"},
      {"measurement": "Precipitation with (NH4)2SO4 at 30%", "setting": "[5]; (NH4)2SO4 30%", "result": "Complete"},
      {"measurement": "Solubility at pH 8", "setting": "[5]", "result": "Complete"},
      {"measurement": "Solubility of the precipitate with (NH4)2SO4 in water", "setting": "[5]; water", "result": "Complete"},
      {"measurement": "value of the lesions on the gastric mucosa", "setting": "[7]; animal 1", "result": 0},
      {"measurement": "value of the lesions on the gastric mucosa", "setting": "[7]; animal 2", "result": 0},
      {"measurement": "value of the lesions on the gastric mucosa", "setting": "[7]; animal 3", "result": 0},
      {"measurement": "value of the lesions on the gastric mucosa", "setting": "[7]; animal 4", "result": 0},
      {"measurement": "value of the lesions on the gastric mucosa", "setting": "[7]; animal 5", "result": 0},
      {"measurement": "value of the lesions on the gastric mucosa", "setting": "[7]; animal 6", "result": 0},
      {"measurement": "value of the lesions on the gastric mucosa", "setting": "[7]; animal 7", "result": 0},
      {"measurement": "value of the lesions on the gastric mucosa, Media (mean)", "setting": "[7]", "result": 0}
    ]},
    {"molecule": "O=S(=O)([O-])[O-].[Fe+2]", "note": "[FERROUS SULFATE, Ferrous Sulphate, reference compound]", "values": [
      {"measurement": "ERYTHROCYTES", "setting": "[1]; 7 (time unit not given)", "result": "7.07 ± 0.76 10^6 /mm^3"},
      {"measurement": "HEMOGLOBIN", "setting": "[1]; 7 (time unit not given)", "result": "14.38 ± 1.91", "unit": "g/100 ml"},
      {"measurement": "SYDEREMIA", "setting": "[1]; 7 (time unit not given)", "result": "247.6 ± 87.0", "unit": "μg/100 ml"},
      {"measurement": "ERYTHROCYTES", "setting": "[1]; 14 (time unit not given)", "result": "7.34 ± 0.46 10^6 /mm^3"},
      {"measurement": "HEMOGLOBIN", "setting": "[1]; 14 (time unit not given)", "result": "15.63 ± 0.33", "unit": "g/100 ml"},
      {"measurement": "SYDEREMIA", "setting": "[1]; 14 (time unit not given)", "result": "198.4 ± 52.2", "unit": "μg/100 ml"},
      {"measurement": "ERYTHROCYTES", "setting": "[1]; 21 (time unit not given)", "result": "6.94 ± 0.42 10^6 /mm^3"},
      {"measurement": "HEMOGLOBIN", "setting": "[1]; 21 (time unit not given)", "result": "14.09 ± 1.50", "unit": "g/100 ml"},
      {"measurement": "SYDEREMIA", "setting": "[1]; 21 (time unit not given)", "result": "171.0 ± 19.9", "unit": "μg/100 ml"},
      {"measurement": "toxicity", "setting": "[6]; conclusions", "result": "considerably toxic"},
      {"measurement": "value of the lesions on the gastric mucosa", "setting": "[7]; animal 1", "result": 1},
      {"measurement": "value of the lesions on the gastric mucosa", "setting": "[7]; animal 2", "result": 2},
      {"measurement": "value of the lesions on the gastric mucosa", "setting": "[7]; animal 3", "result": 1},
      {"measurement": "value of the lesions on the gastric mucosa", "setting": "[7]; animal 4", "result": 1},
      {"measurement": "value of the lesions on the gastric mucosa", "setting": "[7]; animal 5", "result": 3},
      {"measurement": "value of the lesions on the gastric mucosa", "setting": "[7]; animal 6", "result": 1},
      {"measurement": "value of the lesions on the gastric mucosa", "setting": "[7]; animal 7", "result": 3},
      {"measurement": "gastric damage", "setting": "[7]; conclusions", "result": "harmful at the gastric level"},
      {"measurement": "value of the lesions on the gastric mucosa, Media (mean)", "setting": "[7]", "result": 1.70}
    ]}
  ]
}
